Data from patent US20230348421A1, “5-HT2A RECEPTOR INHIBITOR OR INVERSE AGONIST, PREPARATION METHOD THEREFOR, AND APPLICATION THEREOF” (GENEORA PHARMA (SHIJIAZHUANG) CO., LTD., priority 2020, published 2023).

How the values were obtained:
[1] = In-vitro stability in human liver microsomes; assay type: in vitro ADME; settings: for Remaining amount 60 min later: Human liver microsomes 0.5 mg/mL, 1 μM, NADPH 1 mM
Protocol: (§1) • 1) formulation of test sample working solution: the test sample was diluted to 100 μM with methanol; • 2) formulation of liver microsome working solution: liver microsomes were diluted to 0.56 mg/ml with a 100 mM phosphate buffer; • 3) formulation of reduced nicotinamide adenine dinucleotide phosphate (NADPH) working solution: an appropriate amount of NADPH was weighted and diluted to 20 mM with a phosphate buffer, and then a 60 mM MgCl2 solution with the equal volume was added; • 4) formulation of stop solution: tolbutamide was diluted to 20 ng/mL with acetonitrile to serve as a stop solution containing an internal standard.
(§2) The remaining percentage of the test sample was tested 60 min later.

[2] = In-vitro stability in dog liver microsomes; assay type: in vitro ADME; settings: for Remaining amount 60 min later: Dog liver microsomes 0.5 mg/mL, 1 μM, NADPH 1 mM
Protocol: as §1, §2

[3] = In-vivo pharmacokinetic test in rats after intragastric administration; settings: SD rats; for AUC(0-t) / Cmax / MRT last / Tmax / half-life: rat, po, 46.7 umol/kg, 20% Solutol, plasma
Protocol: Blood was collected before administration and 0.25 h, 0.5 h, 1 h, 2 h, 3 h, 4 h, 6 h, 8 h, 12 h and 24 h after administration, respectively and placed in a heparinized EP tube, and the plasma was centrifugally separated. After the plasma was pre-treated, the concentrations of compounds in the plasma were determined by LC-MS/MS, and the pharmacokinetic parameters were calculated.

5-HT2A receptor [4] = molecular target: T1, 5-HT2A receptor (Homo sapiens (Human), UniProt P28223); experiment: Test for 5-HT2A antagonistic activity (calcium ion antagonism, FLIPR, CHO-K1/5-HT2A cells); assay type: cell-based; settings: 100 nM a-methyl-5-HT, Ca2+ signal
T1 sequence (P28223 whole entry): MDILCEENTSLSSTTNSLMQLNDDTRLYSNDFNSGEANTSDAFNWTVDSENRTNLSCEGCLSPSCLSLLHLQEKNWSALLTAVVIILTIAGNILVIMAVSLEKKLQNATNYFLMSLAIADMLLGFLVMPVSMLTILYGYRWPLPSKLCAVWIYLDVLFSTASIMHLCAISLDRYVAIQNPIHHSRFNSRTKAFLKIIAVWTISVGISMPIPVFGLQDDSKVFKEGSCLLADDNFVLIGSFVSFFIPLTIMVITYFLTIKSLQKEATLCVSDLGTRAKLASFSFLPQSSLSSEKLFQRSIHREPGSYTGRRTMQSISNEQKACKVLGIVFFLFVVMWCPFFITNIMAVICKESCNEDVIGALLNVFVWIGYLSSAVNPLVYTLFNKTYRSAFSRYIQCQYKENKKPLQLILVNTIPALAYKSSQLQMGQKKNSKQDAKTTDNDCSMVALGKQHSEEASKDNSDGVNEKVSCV
Protocol: • Cell lines: CHO-K1/5-HT2A (Chempartner) • Cell culture medium: DMEM/F12+10% FBS (purchased from GBICO) • Cell culture plate: 384-well Assay Plate (purchased from Corning) • Detection kit: FLIPR® Calcium 4 Assay Kit (purchased from Molecular Devices)
After that, centrifugation was performed to remove the culture medium in the cell culture plate. Dye was added, and the cells were incubated in a 37° C., 5% CO2 incubator for another 1 h. The cell culture plate was placed on the FLIPR. A compound to be tested was added, and the Ca^2+ signal was detected, wherein the compound to be tested was subjected to 3-fold gradient dilution with PBS to obtain 10 concentrations, with the highest concentration of 10 uM, and double replicate wells were set up. […] In order to determine the test stability, risperidone was used as a positive control. The data were processed with GraphPad Prism 7.0 to obtain a cell inhibition rate curve, and the IC50 was calculated.
Inhibition rate (%)=100%−[(signal value of the compound to be tested−signal value of the test solution)/(the maximum signal value−the signal value of the test solution)]×100%

hERG potassium channels = hERG potassium channels (Homo sapiens (Human), UniProt Q12809); experiment: hERG inhibitory activity, whole-cell patch clamp in CHO-hERG cells; settings: read-out: hERG inhibitory activity IC50; CHO-hERG cells, whole-cell patch clamp, tail current at -50 mV
hERG potassium channels, sequence (Q12809 whole entry): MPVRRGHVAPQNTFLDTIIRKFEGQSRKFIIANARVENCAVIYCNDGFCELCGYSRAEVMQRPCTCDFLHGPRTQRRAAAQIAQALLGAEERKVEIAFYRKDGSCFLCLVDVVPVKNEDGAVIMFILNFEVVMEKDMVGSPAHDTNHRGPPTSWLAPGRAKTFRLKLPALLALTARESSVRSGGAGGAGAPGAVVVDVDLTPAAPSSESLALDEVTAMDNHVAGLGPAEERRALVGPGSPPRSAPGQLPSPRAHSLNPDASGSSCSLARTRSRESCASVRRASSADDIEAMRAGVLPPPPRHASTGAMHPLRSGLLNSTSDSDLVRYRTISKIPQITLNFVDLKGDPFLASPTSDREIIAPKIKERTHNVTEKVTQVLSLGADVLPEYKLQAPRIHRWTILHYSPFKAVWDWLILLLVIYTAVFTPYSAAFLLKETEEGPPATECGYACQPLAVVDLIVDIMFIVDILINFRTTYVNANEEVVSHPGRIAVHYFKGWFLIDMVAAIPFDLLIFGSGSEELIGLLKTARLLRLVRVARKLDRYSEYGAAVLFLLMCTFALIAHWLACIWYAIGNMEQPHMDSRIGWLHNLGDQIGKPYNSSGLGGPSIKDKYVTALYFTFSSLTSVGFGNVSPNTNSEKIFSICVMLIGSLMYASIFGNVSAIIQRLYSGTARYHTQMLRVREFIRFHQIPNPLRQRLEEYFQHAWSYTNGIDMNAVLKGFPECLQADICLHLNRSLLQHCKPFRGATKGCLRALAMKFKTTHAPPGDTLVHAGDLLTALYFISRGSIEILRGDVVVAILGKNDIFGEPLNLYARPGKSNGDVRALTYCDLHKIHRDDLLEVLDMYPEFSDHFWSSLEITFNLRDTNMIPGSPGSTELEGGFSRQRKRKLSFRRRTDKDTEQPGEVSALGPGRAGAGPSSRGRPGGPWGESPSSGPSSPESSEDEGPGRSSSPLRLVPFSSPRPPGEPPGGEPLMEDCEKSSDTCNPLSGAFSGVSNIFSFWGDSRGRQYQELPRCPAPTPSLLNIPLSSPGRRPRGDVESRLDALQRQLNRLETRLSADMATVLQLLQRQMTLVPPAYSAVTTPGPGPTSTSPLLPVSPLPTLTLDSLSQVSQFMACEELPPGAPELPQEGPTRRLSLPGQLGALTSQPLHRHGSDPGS
Protocol: • Name: Dimethyl sulfoxide (DMSO)
• Species & strains: CHO-hERG cell lines (Chinese hamster ovary cells stably expressing hERG channels) • Culture medium: 90% F12, 10% fetal bovine serum, 100 μg/mL G418 and 100 μg/mL hygromycin B • Culture conditions: 5% CO2, 37° C. incubator • Freezing conditions: Liquid nitrogen
Digestion was performed at room temperature for 3-5 min. The digestion solution was pipetted, and the cells were resuspended in extracellular fluid and transferred to an experimental dish for electrophysiological recording for later use.
On the day of the test, the compound was diluted with DMSO to an intermediate concentration. 10 μL of compound with the intermediate concentration was taken, transferred to 4990 μL of extracellular fluid, and subjected to 500-fold dilution to obtain a final concentration to be tested.
CHO (Chinese Hamster Ovary) cells stably expressing hERG potassium channels were taken, and hERG potassium channel currents were recorded at room temperature by means of a whole-cell patch-clamp technique. A glass microelectrode was formed by pulling a glass electrode blank (BF150-86-10, Sutter) with a glass microelectrode puller. The tip resistance was about 2-5 MΩ after perfusion of a pippette solution. The glass microelectrode could be connected to a patch clamp amplifier by inserting the glass microelectrode into an amplifier probe. Clamping voltages and data recording were controlled and recorded by a computer with pClamp 10 software, with a sampling frequency of 10 kHz and a filtering frequency of 2 kHz. After the whole-cell recording was obtained, the cells were clamped at −80 mV, and the step voltage evoking hERG potassium current (I hERG) was changed from −80 mV to +20 mV by giving a 2 s depolarization voltage and then repolarized to −50 mV for 1 s, and returned to −80 mV. Such voltage stimulation was given every 10 s, and the administration process was started after it was determined that the hERG potassium currents were stable (1 min). The compound at each test concentration was given at least 1 min, and at least 2 cells (n≥2) were tested for each concentration.
Data analysis was performed by means of pClamp 10 and GraphPad Prism 5.0 software.
The formula for calculating the degree of inhibition of different compound concentrations on hERG potassium currents (the hERG tail current peak value evoked at −50 mV) was:
Y=Bottom+(Top−Bottom)/(1+10^((LogIC50−X)*HillSlope))
wherein X is a Log value of a test concentration of a test sample, Y is the inhibition percentage at a corresponding concentration, and Bottom and Top are the minimum inhibition percentage and the maximum inhibition percentage, respectively.

5-HT2A receptor [5] = molecular target: T1, 5-HT2A receptor; experiment: Screening for 5-HT2A inverse agonistic activity (NIH3T3-5-HT2A R cells, Bright-Glo luciferase, 120 h); assay type: cell-based; settings: NIH3T3-5HT2AR cells, cell inhibition rate
Protocol: • Cell lines: Adherent cells NIH3T3-5-HT2A R • Cell culture medium: DMEM+10% FBS (purchased from GBICO) • Cell culture plate: White-wall clear-bottom 96-well plate (purchased from Perkin Elmer) • Detection kit: Bright-Glo™ Luciferase (purchased from Promega) • Detection instrument: BioTek multifunctional microplate reader
NIH3T3-5HT2AR cells in the logarithmic growth phase were seeded into a white-wall clear-bottom 96-well plate at a density of 1000 cells per well, and cultured overnight in a 37° C., 5% CO2 incubator. […] On the sixth day, a Bright-Glo™ Luciferase reagent with a volume equal to that of cell sap was added to the cells, and the cells were incubated at room temperature in the dark for 20 min. […] The data was processed with GraphPad Prism 7.0 to obtain a cell inhibition rate curve, and the IC50 was calculated.
Cell inhibition rate (%)=[100−(Lum test drug−Lum culture solution)/(Lum cell control−Lum culture solution)×100]%

SMILES	Remaining amount 60 min later [1] [%]	Remaining amount 60 min later [2] [%]	AUC(0-t) [3] [µM·h]	Cmax [3] [nM]	MRT last [3] [h]	Tmax [3] [h]	half-life [3] [min]	Stability compared with pimavanserin ([1]; human liver microsomes in vitro)	Stability compared with pimavanserin ([2]; dog liver microsomes in vitro)	IC50 (5-HT2A receptor [4]) [nM]	IC50 (hERG potassium channels) [nM]	IC50 (5-HT2A receptor [5]) [nM]	AUClast relative to pimavanserin ([3]; 46.7 μmol/kg) [times]	Cmax relative to pimavanserin ([3]; 46.7 μmol/kg) [times]	T1/2 compared with pimavanserin ([3]; 46.7 μmol/kg)
CC(C)COc1ccc(CNC(=O)N(Cc2ccc(F)cc2)C2CCN(C)CC2)cc1 [Pimavanserin, reference compound]	77.44	29.72	4.29 ± 1.66	536 ± 260	5.61 ± 0.34	2.75 ± 1.26	143 ± 48								
CN1CCC(N(Cc2ccc(F)cn2)C(=O)NCc2ccc(OCC(F)(F)F)cc2)CC1 [Compound 59]	89.19	76.37	17 ± 2.97	1140 ± 365	8.66 ± 0.89	5.88 ± 5.14	331 ± 79.8	obviously superior stability to that of pimavanserin	obviously superior stability to that of pimavanserin	0.54	810	2.04	4	2	higher than that of pimavanserin
CC(C)COc1ccc(CNC(=O)N(Cc2ccc(F)cn2)C2CCN(C)CC2)cc1 [Compound 1]										8.64	410	22.8			
CN1CCC(N(Cc2ccc(F)cn2)C(=O)NCc2ccc(OCCCC(F)(F)F)cc2)CC1 [Compound 82]										3.78	500	1.95			
